How the values were obtained:
[1] = Static ozone deterioration test, Example 1 natural rubber compound (pale crape No. 1); settings: Table 2, static, 20 % elongation, 2 parts added, ozone 35 ± 5 pphm, 50 ± 10°C
Description: (§1) Two parts of each of the present compounds in Table 1 (sample numbers A to H) and, as a counterpart, Antiozonant AFD (a registered trademark of Bayer Co. Ltd.) represented by sample number I were individually mixed thoroughly with the following rubber compound,
(§2) and each resulting mixture was well milled on a 2-roll mill of 10 inches in diameter and then vulcanized thereon at 140°C. for 20 minutes. A blank test was also carried out at the same time for comparison, using the rubber compound alone above mentioned.
(§3) The static and dynamic ozone deterioration tests were made on the test pieces on the Ozone Weather-O-Meter produced by Toyo Rika Co. Ltd. In the static test, the Dumbbel No. 2 test pieces were kept at a 20 % elongation in the stream of ozone during the test, and during the latter test, the test pieces were given repeated elongation of from 0 up to 20 % once a second in the stream of ozone.
(§4) The tests were carried out under the condition that the ozone concentration be 35 ± 5 pphm and the test temperature be 50 ± 10°C., and the time required for the generation of visually observable cracks on the surface of the vulcanized rubber was taken as a crack-generating time which was used as the measure of ozone-resistance.

[2] = Dynamic ozone deterioration test, Example 1 natural rubber compound (pale crape No. 1); settings: Table 3, dynamic, repeated elongation 0 up to 20 % once a second, 2 parts added, ozone 35 ± 5 pphm, 50 ± 10°C
Description: as §1, §2, §3, §4

[3] = Static ozone deterioration test, Example 2 SBR compound; settings: Table 4, static, 20 % elongation, 2 parts added, ozone 35 ± 5 pphm, 50 ± 10°C
Description: as §3, §4
(§5) Two parts of each of the present compounds in Table 1 (sample numbers A to H) and, as a counterpart, Antiozonant AFD represented by sample number I were individually mixed thoroughly with the following rubber compound,
(§6) and each resulting mixture was well milled on a 2-roll mill of 10 inches in diameter and then vulcanized thereon at 150°C. for 30 minutes. A blank test was also carried out at the same time for comparison, using the rubber compound alone above mentioned.

[4] = Dynamic ozone deterioration test, Example 2 SBR compound; settings: Table 5, dynamic, repeated elongation 0 up to 20 %, 2 parts added, ozone 35 ± 5 pphm, 50 ± 10°C
Description: as §3, §4, §5, §6

[5] = Static ozone deterioration test, Example 3 chloroprene rubber compound; settings: Table 6, static, 20 % elongation, 1.5 parts added, ozone 90 ± 5 pphm, 50 ± 10°C
Description: as §3
(§7) be 50 ± 10°C., and the time required for the generation of visually observable cracks on the surface of the vulcanized rubber was taken as a crack-generating time which was used as the measure of ozone-resistance. […]
(§8) A blank test was also carried out at the same time for comparison, using the rubber compound alone above mentioned.

[6] = Dynamic ozone deterioration test, Example 3 chloroprene rubber compound; settings: Table 7, dynamic, repeated elongation 0 up to 20 %, 1.5 parts added, ozone 90 ± 5 pphm, 50 ± 10°C
Description: as §3, §7, §8

SMILES | Crack-generating time [1] | Crack-generating time [2] | Crack-generating time [3] | Crack-generating time [4] | Crack-generating time [5] | Crack-generating time [6]
CC(C)SCCC#N [B] | 15 h | 16 h | 11 h | 14 h | 175 h | 185 h
CC(C#N)CSCC(C)C#N (stereo not drawn) [C] | 18 h | 20 h | 13 h | 18 h | 190 h | 210 h
N#CCCCSCCCC#N [D] | 19 h | 22 h | 15 h | 19 h | 195 h | 215 h
CCC(CCCC#N)CSCC(CC)CCCC#N (stereo not drawn) [E] | 16 h | 16 h | 11 h | 15 h | 180 h | 190 h
CCCCCCCCCCCCCCCCCCSCCC#N [F] | 14 h | 15 h | 10 h | 13 h | 170 h | 180 h
N#CCCSCCC#N [Sample A] | 20 h | 24 h | 16 h | 21 h | 200 h | 220 h
